Measured values reported in ChEMBL document CHEMBL1156950, “Synthesis and biological evaluation of 4-anilinoquinolines as potent inhibitors of epidermal growth factor receptor” (J Med Chem, 2010).

Key:
[1] = target: Insulin receptor-related protein (Homo sapiens) (UniProt P14616); test: Inhibition of IRR at 10 uM assessed as residual activity by [33P]ATP radioactive filter binding assay relative to control
[2] = target: Fibroblast growth factor receptor 1 (Homo sapiens) (UniProt P11362); test: Inhibition of FGF-R1 at 10 uM assessed as residual activity by [33P]ATP radioactive filter binding assay relative to control
[3] = target: Inhibitor of nuclear factor kappa-B kinase subunit beta (Homo sapiens) (UniProt O14920); test: Inhibition of IKK-beta at 10 uM assessed as residual activity by [33P]ATP radioactive filter binding assay relative to control
[4] = target: Serine/threonine-protein kinase BRSK1 (Homo sapiens) (UniProt Q8TDC3); test: Inhibition of BRSK1 at 10 uM assessed as residual activity by [33P]ATP radioactive filter binding assay relative to control
[5] = target: Serine/threonine-protein kinase Chk1 (Homo sapiens) (UniProt O14757); test: Inhibition of CHK1 at 10 uM assessed as residual activity by [33P]ATP radioactive filter binding assay relative to control
[6] = target: Serine/threonine-protein kinase Sgk1 (Homo sapiens) (UniProt O00141); test: Inhibition of SGK1 at 10 uM assessed as residual activity by [33P]ATP radioactive filter binding assay relative to control
[7] = target: MAP/microtubule affinity-regulating kinase 4 (Homo sapiens) (UniProt Q96L34); test: Inhibition of MARK4 at 10 uM assessed as residual activity by [33P]ATP radioactive filter binding assay relative to control
[8] = target: Receptor tyrosine-protein kinase erbB-4 (Homo sapiens) (UniProt Q15303); test: Inhibition of HER4 at 10 uM assessed as residual activity by [33P]ATP radioactive filter binding assay relative to control
[9] = target: Aurora kinase A (Homo sapiens) (UniProt O14965); test: Inhibition of Aurora A at 10 uM assessed as residual activity by [33P]ATP radioactive filter binding assay relative to control
[10] = target: Eukaryotic elongation factor 2 kinase (Homo sapiens) (UniProt O00418); test: Inhibition of EF2K at 10 uM assessed as residual activity by [33P]ATP radioactive filter binding assay relative to control
[11] = target: MAP kinase-activated protein kinase 2 (Homo sapiens) (UniProt P49137); test: Inhibition of MAPKAP-K2 at 10 uM assessed as residual activity by [33P]ATP radioactive filter binding assay relative to control
[12] = target: Protein kinase C alpha type (Homo sapiens) (UniProt P17252); test: Inhibition of PKCalpha at 10 uM assessed as residual activity by [33P]ATP radioactive filter binding assay relative to control
cells [13] = settings: Mus musculus, BaF3, 96 h
Description: Growth inhibition of mouse BA/F3 cells expressing EGFR Del5 and Thr790Met mutant after 96 hrs by cell titer-glo assay

[14] = target: Ribosomal protein S6 kinase alpha-1 (Homo sapiens) (UniProt Q15418); test: Inhibition of RSK1 at 10 uM assessed as residual activity by [33P]ATP radioactive filter binding assay relative to control
cells [15] = settings: Mus musculus, BaF3, 96 h; remark: listed apart in the source
[16] = target: Mitogen-activated protein kinase 10 (Homo sapiens) (UniProt P53779); test: Inhibition of JNK3 at 10 uM assessed as residual activity by [33P]ATP radioactive filter binding assay relative to control
[17] = target: MAP/microtubule affinity-regulating kinase 3 (Homo sapiens) (UniProt P27448); test: Inhibition of MARK3 at 10 uM assessed as residual activity by [33P]ATP radioactive filter binding assay relative to control
[18] = target: Serine/threonine-protein kinase D1 (Homo sapiens) (UniProt Q15139); test: Inhibition of PKD1 at 10 uM assessed as residual activity by [33P]ATP radioactive filter binding assay relative to control
[19] = target: RAC-alpha serine/threonine-protein kinase (Homo sapiens) (UniProt P31749); test: Inhibition of PKBalpha at 10 uM assessed as residual activity by [33P]ATP radioactive filter binding assay relative to control
[20] = target: Serine/threonine-protein kinase PAK 4 (Homo sapiens) (UniProt O96013); test: Inhibition of PAK4 at 10 uM assessed as residual activity by [33P]ATP radioactive filter binding assay relative to control
[21] = target: Calcium/calmodulin-dependent protein kinase type 1 (Homo sapiens) (UniProt Q14012); test: Inhibition of CAMK1 at 10 uM assessed as residual activity by [33P]ATP radioactive filter binding assay relative to control
[22] = target: Mitogen-activated protein kinase kinase kinase 9 (Homo sapiens) (UniProt P80192); test: Inhibition of MLK1 at 10 uM assessed as residual activity by [33P]ATP radioactive filter binding assay relative to control
[23] = target: Mitogen-activated protein kinase 8 (Homo sapiens) (UniProt P45983); test: Inhibition of JNK1 at 10 uM assessed as residual activity by [33P]ATP radioactive filter binding assay relative to control
[24] = target: Ribosomal protein S6 kinase alpha-3 (Homo sapiens) (UniProt P51812); test: Inhibition of RSK2 at 10 uM assessed as residual activity by [33P]ATP radioactive filter binding assay relative to control
[25] = target: Tyrosine-protein kinase BTK (Homo sapiens) (UniProt Q06187); test: Inhibition of BTK at 10 uM assessed as residual activity by [33P]ATP radioactive filter binding assay relative to control
[26] = target: Mitogen-activated protein kinase 11 (Homo sapiens) (UniProt Q15759); test: Inhibition of p38beta at 10 uM assessed as residual activity by [33P]ATP radioactive filter binding assay relative to control
cells [27] = settings: Mus musculus, BaF3, 96 h; remark: listed apart in the source
Description: Growth inhibition of mouse BA/F3 cells expressing EGFR Del1 and Thr790Met mutant after 96 hrs by cell titer-glo assay

[28] = target: Dual specificity mitogen-activated protein kinase kinase 1 (Homo sapiens) (UniProt Q02750); test: Inhibition of MKK1 at 10 uM assessed as residual activity by [33P]ATP radioactive filter binding assay relative to control
[29] = target: Mitogen-activated protein kinase kinase kinase kinase 2 (Homo sapiens) (UniProt Q12851); test: Inhibition of GCK at 10 uM assessed as residual activity by [33P]ATP radioactive filter binding assay relative to control
cells [30] = settings: Mus musculus, BaF3, 96 h; remark: listed apart in the source
Description: Growth inhibition of mouse BA/F3 cells expressing EGFR Del3 and Thr790Met mutant after 96 hrs by cell titer-glo assay

[31] = target: Serine/threonine-protein kinase STK11 (Homo sapiens) (UniProt Q15831); test: Inhibition of LKB1 at 10 uM assessed as residual activity by [33P]ATP radioactive filter binding assay relative to control
[32] = target: Mitogen-activated protein kinase 14 (Homo sapiens) (UniProt Q16539); test: Inhibition of p38alpha at 10 uM assessed as residual activity by [33P]ATP radioactive filter binding assay relative to control
[33] = target: Casein kinase I isoform alpha (Homo sapiens) (UniProt P48729); test: Inhibition of CK1 at 10 uM assessed as residual activity by [33P]ATP radioactive filter binding assay relative to control

Serine/threonine-protein kinase Sgk1 (Homo sapiens), sequence (O00141 whole entry): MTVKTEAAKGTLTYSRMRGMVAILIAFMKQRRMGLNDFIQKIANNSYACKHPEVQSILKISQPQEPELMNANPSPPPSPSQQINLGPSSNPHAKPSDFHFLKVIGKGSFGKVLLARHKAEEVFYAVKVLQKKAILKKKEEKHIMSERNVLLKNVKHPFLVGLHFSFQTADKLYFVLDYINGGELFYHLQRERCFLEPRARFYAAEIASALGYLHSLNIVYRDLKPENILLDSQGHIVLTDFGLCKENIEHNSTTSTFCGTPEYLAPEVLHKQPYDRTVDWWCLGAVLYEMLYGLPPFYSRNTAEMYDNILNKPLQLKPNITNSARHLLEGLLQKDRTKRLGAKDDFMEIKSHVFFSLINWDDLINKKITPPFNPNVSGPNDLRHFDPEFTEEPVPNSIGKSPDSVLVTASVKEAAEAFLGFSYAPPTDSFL
Ribosomal protein S6 kinase alpha-3 (Homo sapiens), sequence (P51812 whole entry): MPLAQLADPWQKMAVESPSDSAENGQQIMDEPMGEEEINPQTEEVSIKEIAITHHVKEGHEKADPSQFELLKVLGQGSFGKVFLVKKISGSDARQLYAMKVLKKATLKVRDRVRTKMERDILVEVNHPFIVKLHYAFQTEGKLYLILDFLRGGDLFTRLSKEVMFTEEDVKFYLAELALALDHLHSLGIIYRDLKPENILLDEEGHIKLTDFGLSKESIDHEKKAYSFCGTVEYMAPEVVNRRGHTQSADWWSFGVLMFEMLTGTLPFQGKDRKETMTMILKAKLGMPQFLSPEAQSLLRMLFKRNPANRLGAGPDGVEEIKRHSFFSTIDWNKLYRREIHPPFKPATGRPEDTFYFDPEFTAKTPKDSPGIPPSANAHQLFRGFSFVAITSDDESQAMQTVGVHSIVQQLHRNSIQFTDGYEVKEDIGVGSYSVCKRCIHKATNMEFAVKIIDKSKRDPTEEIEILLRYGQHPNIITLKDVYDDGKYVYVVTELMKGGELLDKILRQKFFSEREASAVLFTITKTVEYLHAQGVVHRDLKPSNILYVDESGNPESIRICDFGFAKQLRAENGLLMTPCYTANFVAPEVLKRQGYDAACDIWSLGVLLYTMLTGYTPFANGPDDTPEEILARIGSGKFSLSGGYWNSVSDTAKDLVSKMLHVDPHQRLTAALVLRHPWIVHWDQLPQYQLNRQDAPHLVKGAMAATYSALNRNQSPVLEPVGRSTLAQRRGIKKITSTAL
Serine/threonine-protein kinase PAK 4 (Homo sapiens), sequence (O96013 whole entry, looked up): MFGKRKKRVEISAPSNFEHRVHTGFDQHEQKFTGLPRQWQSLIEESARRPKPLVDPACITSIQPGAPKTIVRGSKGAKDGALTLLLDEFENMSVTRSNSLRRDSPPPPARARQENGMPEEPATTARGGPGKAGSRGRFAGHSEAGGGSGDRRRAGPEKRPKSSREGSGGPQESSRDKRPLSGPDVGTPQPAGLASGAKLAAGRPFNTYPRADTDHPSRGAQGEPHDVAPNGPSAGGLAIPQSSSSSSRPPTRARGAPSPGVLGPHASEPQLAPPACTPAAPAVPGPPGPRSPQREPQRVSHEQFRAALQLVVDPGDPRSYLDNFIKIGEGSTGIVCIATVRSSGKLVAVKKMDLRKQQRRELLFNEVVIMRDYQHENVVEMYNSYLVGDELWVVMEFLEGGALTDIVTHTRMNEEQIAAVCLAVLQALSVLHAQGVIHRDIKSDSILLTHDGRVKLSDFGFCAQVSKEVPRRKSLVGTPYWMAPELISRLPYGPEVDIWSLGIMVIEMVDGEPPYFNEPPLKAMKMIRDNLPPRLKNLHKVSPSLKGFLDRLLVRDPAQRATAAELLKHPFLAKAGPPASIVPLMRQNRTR
Eukaryotic elongation factor 2 kinase (Homo sapiens), sequence (O00418 whole entry): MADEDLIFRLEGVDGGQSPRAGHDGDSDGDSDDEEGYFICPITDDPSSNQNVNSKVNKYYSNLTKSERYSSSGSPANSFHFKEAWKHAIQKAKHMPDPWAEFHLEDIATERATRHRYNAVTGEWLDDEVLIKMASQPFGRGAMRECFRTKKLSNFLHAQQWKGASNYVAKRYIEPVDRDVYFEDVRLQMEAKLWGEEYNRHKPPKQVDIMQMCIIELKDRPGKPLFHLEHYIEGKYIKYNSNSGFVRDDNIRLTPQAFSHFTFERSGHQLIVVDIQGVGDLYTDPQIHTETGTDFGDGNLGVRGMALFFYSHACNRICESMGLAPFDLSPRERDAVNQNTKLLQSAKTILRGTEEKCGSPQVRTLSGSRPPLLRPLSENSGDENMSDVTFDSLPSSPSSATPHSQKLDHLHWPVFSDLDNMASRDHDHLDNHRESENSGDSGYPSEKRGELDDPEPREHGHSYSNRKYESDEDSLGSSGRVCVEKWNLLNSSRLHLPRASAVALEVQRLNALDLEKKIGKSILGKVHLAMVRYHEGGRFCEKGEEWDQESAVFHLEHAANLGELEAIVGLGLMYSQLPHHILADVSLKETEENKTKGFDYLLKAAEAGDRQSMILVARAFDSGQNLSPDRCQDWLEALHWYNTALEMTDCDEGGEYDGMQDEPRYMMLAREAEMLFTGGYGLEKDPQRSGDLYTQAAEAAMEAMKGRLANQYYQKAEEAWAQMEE
Mitogen-activated protein kinase 8 (Homo sapiens), sequence (P45983 whole entry): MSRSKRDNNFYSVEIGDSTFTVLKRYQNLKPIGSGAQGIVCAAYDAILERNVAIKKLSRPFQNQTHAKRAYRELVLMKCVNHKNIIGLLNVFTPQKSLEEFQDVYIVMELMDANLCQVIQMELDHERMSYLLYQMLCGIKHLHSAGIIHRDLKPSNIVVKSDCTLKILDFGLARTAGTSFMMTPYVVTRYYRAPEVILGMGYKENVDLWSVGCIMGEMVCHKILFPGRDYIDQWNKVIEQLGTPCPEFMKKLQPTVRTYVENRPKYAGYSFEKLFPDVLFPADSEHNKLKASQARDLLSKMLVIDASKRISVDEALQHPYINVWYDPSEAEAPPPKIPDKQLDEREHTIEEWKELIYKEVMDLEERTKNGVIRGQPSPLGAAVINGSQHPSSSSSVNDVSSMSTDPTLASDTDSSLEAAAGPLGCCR
Inhibitor of nuclear factor kappa-B kinase subunit beta (Homo sapiens), sequence (O14920 whole entry): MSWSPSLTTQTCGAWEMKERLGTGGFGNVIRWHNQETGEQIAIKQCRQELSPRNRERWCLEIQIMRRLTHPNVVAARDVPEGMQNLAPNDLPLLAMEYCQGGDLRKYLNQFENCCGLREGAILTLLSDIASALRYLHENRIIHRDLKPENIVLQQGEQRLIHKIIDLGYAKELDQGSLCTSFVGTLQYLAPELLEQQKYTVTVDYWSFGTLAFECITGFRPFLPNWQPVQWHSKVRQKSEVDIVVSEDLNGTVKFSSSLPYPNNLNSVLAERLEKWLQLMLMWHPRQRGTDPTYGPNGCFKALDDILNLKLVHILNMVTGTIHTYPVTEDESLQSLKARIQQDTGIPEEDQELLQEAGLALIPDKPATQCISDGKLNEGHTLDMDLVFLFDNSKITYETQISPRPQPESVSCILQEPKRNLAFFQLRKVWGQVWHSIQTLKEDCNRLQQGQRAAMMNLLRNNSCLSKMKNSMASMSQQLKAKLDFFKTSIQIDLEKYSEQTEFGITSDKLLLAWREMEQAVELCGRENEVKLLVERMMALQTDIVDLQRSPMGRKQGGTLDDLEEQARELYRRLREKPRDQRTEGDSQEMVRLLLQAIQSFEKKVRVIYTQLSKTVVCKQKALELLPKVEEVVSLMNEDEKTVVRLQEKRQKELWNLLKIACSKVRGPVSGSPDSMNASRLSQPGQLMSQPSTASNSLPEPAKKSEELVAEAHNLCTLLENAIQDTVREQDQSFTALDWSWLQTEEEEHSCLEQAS
MAP/microtubule affinity-regulating kinase 3 (Homo sapiens), sequence (P27448 whole entry, looked up): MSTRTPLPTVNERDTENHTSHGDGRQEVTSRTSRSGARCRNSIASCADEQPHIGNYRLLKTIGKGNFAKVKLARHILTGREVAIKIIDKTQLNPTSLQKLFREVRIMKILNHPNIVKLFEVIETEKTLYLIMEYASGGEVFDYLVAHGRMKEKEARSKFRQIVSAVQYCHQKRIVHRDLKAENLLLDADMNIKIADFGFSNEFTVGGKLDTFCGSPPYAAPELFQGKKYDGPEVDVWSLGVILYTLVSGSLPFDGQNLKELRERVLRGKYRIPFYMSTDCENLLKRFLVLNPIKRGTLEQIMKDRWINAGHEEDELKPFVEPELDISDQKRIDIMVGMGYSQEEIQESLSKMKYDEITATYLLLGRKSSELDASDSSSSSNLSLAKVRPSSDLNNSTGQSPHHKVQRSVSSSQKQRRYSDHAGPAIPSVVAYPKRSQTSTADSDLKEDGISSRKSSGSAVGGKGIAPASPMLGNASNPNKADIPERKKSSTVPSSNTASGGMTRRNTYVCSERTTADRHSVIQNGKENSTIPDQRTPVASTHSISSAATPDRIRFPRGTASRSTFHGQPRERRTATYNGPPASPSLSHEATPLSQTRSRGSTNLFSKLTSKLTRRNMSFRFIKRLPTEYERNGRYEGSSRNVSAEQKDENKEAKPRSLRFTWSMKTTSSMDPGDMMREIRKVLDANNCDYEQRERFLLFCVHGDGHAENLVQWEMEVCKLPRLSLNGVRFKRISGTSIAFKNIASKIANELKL
MAP kinase-activated protein kinase 2 (Homo sapiens), sequence (P49137 whole entry, looked up): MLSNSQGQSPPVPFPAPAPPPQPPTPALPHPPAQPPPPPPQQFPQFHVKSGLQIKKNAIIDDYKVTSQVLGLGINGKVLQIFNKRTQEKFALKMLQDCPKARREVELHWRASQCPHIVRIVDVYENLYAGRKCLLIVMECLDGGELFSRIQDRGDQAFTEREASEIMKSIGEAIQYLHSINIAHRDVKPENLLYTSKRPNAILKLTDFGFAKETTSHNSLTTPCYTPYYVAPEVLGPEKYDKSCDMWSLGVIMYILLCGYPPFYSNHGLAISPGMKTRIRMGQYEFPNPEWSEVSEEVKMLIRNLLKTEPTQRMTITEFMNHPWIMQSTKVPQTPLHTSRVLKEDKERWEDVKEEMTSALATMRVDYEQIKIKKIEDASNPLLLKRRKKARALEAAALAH

Row | Activity [1] [%] | Activity [2] [%] | Activity [3] [%] | Activity [4] [%] | Activity [5] [%] | Activity [6] [%] | Activity [7] [%] | Activity [8] [%] | Activity [9] [%] | Activity [10] [%] | Activity [11] [%] | Activity [12] [%] | Activity [14] [%] | Activity [16] [%] | Activity [17] [%] | Activity [18] [%] | Activity [19] [%] | Activity [20] [%] | Compound | GI50 (cells [13]) [nM] | GI50 (cells [15]) [nM] | further results
1 | 79 | 31 | 62 | 46 | 83 | 82 | 75 | -10 | 88 | 99 | 86 | 81 | 89 | 62 | 94 | 14 | 100 | 79 | CN(C)CCCC(=O)Nc1ccc2nccc(Nc3cccc(Br)c3)c2c1 | > 500 | > 500 | Activity [21]: 30%; Activity [22]: 79%; Activity [23]: 49%; Activity [24]: 74%; Activity [25]: 36%; Activity [26]: 63%; GI50 (cells [27]): > 500 nM; Activity [28]: 45%; Activity [29]: 30%; GI50 (cells [30]): > 500 nM; Activity [31]: 94%; Activity [32]: 30%; Activity [33]: 44%
2 | 70 | 37 | 90 | 52 | 79 | 72 | 74 | -12 | 66 | 91 | 90 | 78 | 72 | 72 | 86 | 18 | 103 | 83 | CN(C)CCCC(=O)Nc1ccc2ncnc(Nc3cccc(Br)c3)c2c1 | > 5000 | > 5000 | Activity [21]: 57%; Activity [22]: 87%; Activity [23]: 76%; Activity [24]: 78%; Activity [25]: 79%; Activity [26]: 81%; GI50 (cells [27]): > 5000 nM; Activity [28]: 29%; Activity [29]: 48%; GI50 (cells [30]): > 5000 nM; Activity [31]: 103%; Activity [32]: 63%; Activity [33]: 66%
